For two molecules, MIC and solubility results are on record in patent US6194441A, “Oxazolidinone derivatives and their use as antibacterial agents” (Zeneca Ltd., priority 1997, dated 2001).

The test system of one data set is Enterococcus faecalis. The data set is described as follows: MIC by agar-dilution technique, E. faecalis. Particulars: IsoSensitest agar, inoculum 10^4 CFU/spot, 37° C., 24 hours. It counts as cell-based. As to the method:
(§1) The following results were obtained on a standard in vitro test system. The activity is described in terms of the minimum inhibitory concentration (MIC) determined by the agar-dilution technique with an inoculum size of 10^4 CFU/spot.
(§2) The organisms were tested on a standard semi-defined susceptability test medium (IsoSensitest agar), using an inoculum of 10^4 CFU/spot and an incubation temperature of 37° C. for 24 hours. Typically, compounds are active in the range 0.01 to 128 μg/ml.

The next data set has as its system Bacillus subtilis. The experiment in a line: MIC by agar-dilution technique, B. subtilis. The format is cell-based. Particulars: IsoSensitest agar, inoculum 10^4 CFU/spot, 37° C., 24 hours. As to the method: as §1, §2
The test system of data set [1] is Coagulase Negative Staphylococci MS. The data set is described as follows: MIC by agar-dilution technique, coagulase negative staphylococci MS. It counts as cell-based. Particulars: IsoSensitest agar, inoculum 10^4 CFU/spot, 37° C., 24 hours, methicillin sensitive. On the procedure:
as §1, §2

The test system of data set [2] is Coagulase Negative Staphylococci MR. The data set is described as follows: MIC by agar-dilution technique, coagulase negative staphylococci MR. It counts as cell-based. Particulars: IsoSensitest agar, inoculum 10^4 CFU/spot, 37° C., 24 hours, methicillin resistant. As to the method: as §1, §2
Data set [3] concerns Staphylococcus aureus MRQR. The experiment in a line: MIC by agar-dilution technique, S. aureus MRQR. The format is cell-based. Particulars: IsoSensitest agar, inoculum 10^4 CFU/spot, 37° C., 24 hours, methicillin resistant quinolone resistant. As to the method:
as §1, §2

Data set [4] relates to Streptococcus pyogenes C203. The experiment in a line: MIC by agar-dilution technique, S. pyogenes C203. The format is cell-based. Particulars: IsoSensitest agar, inoculum 10^4 CFU/spot, 37° C., 24 hours. On the procedure:
as §1, §2

In data set [5] the test system is Staphylococcus aureus Oxford. The data set is described as follows: MIC by agar-dilution technique, S. aureus Oxford. Conditions: IsoSensitest agar, inoculum 10^4 CFU/spot, 37° C., 24 hours, Oxford strain. It counts as cell-based. On the procedure: as §1, §2
Data set [6] concerns Staphylococcus aureus Novb. Res. The experiment in a line: MIC by agar-dilution technique, S. aureus novobiocin resistant. It counts as cell-based. Particulars: 24 h. As to the method: as §1, §2
A further data set can be described thus: Solubility in water. The format is physicochemical. Particulars: dihydrochloride salt.

In brackets after ≈: the same amount, converted by molar mass. Counter-ions that a name gives are not always drawn.

As a reminder, the MIC is the smallest concentration in the dilution series that meets the test's criterion for growth inhibition. Higher therefore signals weaker potency. Take `CC(=O)NC[C@H]1CN(c2ccc(-n3cnc(C=CC#N)c3)c(F)c2)C(=O)O1` [Example 2]: the MIC amounted to 0.25 µg/mL (≈ 0.677 µM) with Enterococcus faecalis; 0.25 µg/mL (≈ 0.677 µM) against Bacillus subtilis; 0.06 µg/mL (≈ 0.162 µM) in data set [1]; 0.25 µg/mL (≈ 0.677 µM) in data set [2]; 1 µg/mL (≈ 2.71 µM) in data set [3]; 0.125 µg/mL (≈ 0.338 µM) in data set [4]. Besides, the results for the MIC in data set [5] and in data set [6] were 0.125 µg/mL (≈ 0.338 µM) and 0.25 µg/mL (≈ 0.677 µM), respectively.

Usually solubility stands for the dissolved amount per volume that the medium holds. As for `CC(=O)NC[C@H]1CN(c2ccc(-n3cnc(/C=C/c4ccccn4)c3)c(F)c2)C(=O)O1` [Example 11 dihydrochloride salt, N-[(5S)-3-(3-Fluoro-4-(4-(E-2-(Pyrid-2-yl)ethenyl)imidazol-1-yl)phenyl)-2-oxooxazolidin-5-ylmethyl]acetamide], the solubility in the data set “Solubility in water” was about 10000 µg/mL.
